Data reported in patent publication US20240352396A1, “PE[…]-C[…] CULTURE INCUBATOR” (Northeastern University, priority 2023, published 2024).

Legend:
MCF7 = conditions: 5 mM NaN3, 6 hours, 5% O2
Method: (§1) MCF7 were seeded overnight in a 24-well plate and incubated at 5% O2 for 24 hours. […] Cells were incubated with 1:1000 live/dead dye (LIVE/DEAD Fixable Kit, Thermo Fisher Scientific) for 1 hour. Flow cytometry (Attune NxT, Thermo Fisher Scientific) of live singlets was used to determine the cell viability.

MCF7 cultures = conditions: MCF7 in 24-well plate, 5% O2 incubator, 5 mM sodium azide; rose from 3% O2 to the incubator setpoint; PBS-spiked cultures returned to 3% O2
Method: as §1

Compound: [N-]=[N+]=[N-] [sodium azide]
- MCF7 cell viability (MCF7): no significant change
- pericellular O2 tension (MCF7 cultures): 5 % O2
